Results from patent US20070105810A1, “THERAPEUTICS” (priority 2003, published 2007).
Several values for one entry are separate records, joined by “and”; a condition that tells them apart may be missing. Identical values can stand only once. Entries after “also recorded” stand apart in the source; their conditions may differ.

What was measured:
[1] = system: T cell receptor/CD3 complex mediated Ca2+ signalling; test: Ca2+ signalling evoked by crosslinking of CD3 in rat encephalitogenic (MBP-specific) T cells; format: cell-based; details: for TCR/CD3-induced Ca2+ signalling: T-lymphocytes, summary statement
Description: Assuming that the NAADP/Ca^2+ signalling system plays an important role in T cell receptor/CD3 mediated activation, one would expect an inhibitory effect of BZ 52 on stimulation of rat encephalitogenic CD4-positive T cells via CD3 crosslinking. Thus, Fura2-loaded rat encephalitogenic CD4-positive T cells (resting) were stimulated by anti-CD3 followed by crosslinking of the primary antibody (FIG. 11, black line). A rapid high increase of [Ca^2+]i followed by a briefly elevated sustained phase was observed.
Fura2-loaded rat T cells were analyzed for [Ca^2+]i by fluorimetry. First arrow indicates addition of anti-CD3 mAb, second arrow indicates addition of a crosslinking secondary antibody. In case of BZ 52 cells were preincubated with BZ 52 (500 μM) for 60 min at RT.
Resting rat T cells were loaded with fura2/AM and suspension measurements were carried out as described in [4]. Arrows indicate time point of addition of antibody or Ca^2+ solution. A, Addition of anti-CD3-mAb (1st arrow) and a crosslinking, secondary antibody (2nd arrow). B, Bar chart summarizing data from A (transient Ca^2+ peak and Ca^2+ plateau; mean±s.e.m, n=8-9). C, Under Ca^2+ free conditions the anti-CD3-mAb (1st arrow) and secondary crosslinking antiserum (2nd arrow) were added; then [Ca^2+] was increased to 1 mM (3rd arrow). D, Bar chart summarizing data from C (transient Ca^2+ release peak, Ca^2+ influx peak, Ca^2+ influx plateau and the difference between Ca^2+ influx peak and plateau (=Overshoot); mean±s.e.m, n=6-7). The negative controls are without stimulation by anti-CD3-mAb.
[Ca^2+]i was measured by using the fluorescent indicator Fura2/AM. In brief, 10^7 cells were loaded with Fura2/AM, and fluorescence was determined in batches of 1.5×10^6 cells with an Hitachi F-2000 fluorimeter at excitation and emission wavelengths of 340 and 380 nm (exc.) and 505 nm (em.), respectively. Measurements were carried out at 20° C. At the end of each single measurement maximal and minimal ratios were determined by addition of Triton X-100 and EGTA/Tris.

[2] = system: transfer experimental autoimmune encephalomyelitis (EAE) in Lewis rats; test: Transfer experimental autoimmune encephalomyelitis (EAE); format: in vivo, Lewis rat
Description: Transfer of MBP-specific CD4-positive T cells was used at day 0 to induce experimental autoimmune encephalomyelitis (EAE) in Lewis rats. Animals injected with PBS (vehicle) or nicotinic acid (control compound with structural similarities to BZ52) developed severe paralysis of tail and rear legs due to the inflammation. Clinical symptoms started day 3.5 and reached their maxima day 4 to 6 (or 6.5). Between day 3.5 and day 6, no difference between PBS and nicotinic acid was observed, whereas a beneficial effect of BZ52 was visible (FIG. 14).
Animals (6 per group, body weight approx. 150 g) were injected i.p. twice per day with either PBS (vehicle control), nicotinic acid (50 μmol/100 g body weight), or BZ 52 (50 μmol/100 g body weight). Clinical scores indicate the degree of paralysis of tail and legs. Data are presented as mean±SD from one representative experiment (n=6).
Animals (6 per group, body weight approx. 150 g) were injected i.p. twice per day with either PBS (vehicle control), nicotinic acid (50 μmol/100 g body weight), or BZ 52 (50 μmol/100 g body weight). […] Data are presented as mean±SD from one representative experiment (n=6).
5×10^6 activated MBP specific-GFP Tcells were transferred i.v. into recipient Lewis rats. Clinical EAE was graded in five scores: 0.5, loss of tail tonus; 1, tail paralysis; 2, gait disturbance; 3, hind limb paralysis; 4, tetraparesis; 5, death.
Animals' weight was measured twice a day.
In order to analyze the effect of BZ194 on encephalitogenic T cells during the effector phase of EAE we used retrovirally transduced MBP-specific T cells expressing the marker gene green fluorescent protein (TMBP-GFP cells).
Animals were treated for 5 d intraperitoneally with 500 μmol BZ194 or vehicle (DMSO).

[3] = system: encephalitogenic (MBP-specific GFP) T cells and inflammatory cells in CNS and spleen; test: Cytofluorometric cell counts in organs of EAE animals; format: in vivo, rat
Experimental: Animals (6 per group, body weight approx. 150 g) were injected i.p. twice per day with either PBS (vehicle control), nicotinic acid (50 μmol/100 g body weight), or BZ 52 (50 μmol/100 g body weight). […] Data are corrected for organ mass and presented as mean±SD from one representative experiment.
Cytofluorometric cell counts of MBP-specific GFP T cells in spleen A and CNS B of BZ194 (500 μmol) and DMSO-treated animals at d 3 after T cell transfer.
Cytofluorometric counts of T cells (CD4/8, abTCR), monocytes/macrophages (CD11b), dendritic cells (CD11c), B cells (OX33/CD45RA) and LFA-1+ (CD11a) and MHC class II+ (OX-6) cells in EAE lesions 4 days after T cell transfer after BZ194 (5 d, 500 μmol, blue bars) or vehicle (DMSO, magenta bars).
Single cell suspensions from organs were prepared as described previously (Flügel et al. 2001, Immunity). TGFP cells were sorted immediately after cell preparation in PBS containing 2% glucose at 4° C. using FACS Vantage (Becton Dickinson) or MoFlo sorter (Cytomation Bioinstruments, Freiburg, Germany). Cytofluorometric analysis was performed with FACS-Calibur operated by Cell Quest software (Becton Dickinson). The following monoclonal antibodies were used for surface membrane analysis: W3/25 (anti-CD4), OX33 (CD45RA, B cells, both from Serotec, Düsseldorf, Germany), R73 (abTCR), OX-6 (rat MHC class II), OX-40 antigen (CD134), OX-39 (CD25, IL-2Ra chain), CD8a, CD8b, CD11a (LFA-1a), CD11b (integrin aM chain), CD11b/c (OX42), CD11c (integrin aX chain) (all Becton Dickinson, Heidelberg, Germany). Allophycocyanin-labeled anti-mouse antibody (Invitrogen, Karlsruhe, Germany) was used as secondary antibody.

[4] = 500 μmol BZ194 i.p. for 5 d, mean±SD, Experiments I-III

CCCCN(CCCC)C(=O)C[n+]1cccc(C(=O)O)c1 [BZ52, 3-Carboxy-1-dibutylcarbamoylmethyl-pyridinium]
TCR/CD3-induced Ca2+ signalling [1]: efficiently inhibited | Ca2+ signalling upon CD3-crosslinking ([1]; preincubation 60 min with 500 μM BZ52): significantly inhibited | decrease in body weight ([2]; 50 μmol/100 g body weight i.p. twice per day): less pronounced decrease | clinical symptoms (clinical score) vs PBS ([2]; 50 μmol/100 g body weight i.p. twice per day, day 3.5 to day 6): a less rapid increase of symptoms, a decreased maximum score and a more rapid decline of clinical symptoms | number of encephalitogenic T cells ([3]; day 4 post transfer, 50 μmol/100 g i.p. twice per day): reduced significantly | decrease of number of CNS-infiltrating encephalitogenic T cells ([3]; day 4 post transfer, 50 μmol/100 g i.p. twice per day, one animal per group): about 50%

CCCCCCCCNC(=O)C[n+]1cccc(C(=O)O)c1.[Br-] [BZ194, 3-Carboxy-1-Octylcarbamoylmethyl-Pyridinium]
TCR/CD3 complex mediated Ca2+ signalling ([1]; MBP-specific rat T cell suspensions, standard and Ca2+-free/Ca2+-reintroduction protocol): partially blocked | TCR/CD3-induced Ca2+ signalling [1]: efficiently inhibited | sustained Ca2+ signalling ([1]; both protocols, MBP-specific rat T cells): almost completely abolished | Max. body weight loss (%) [2, 4]: 8 ± 1.6% and 10 ± 4.4% and 9 ± 4.3% | Max. clinical score [2, 4]: 1.6 ± 0.5 and 1.4 ± 0.8 | clinical EAE (clinical score) ([2]; intraperitoneal BZ194, EAE by i.v. transfer of 5×10^6 TMBP-GFP cells): suppressed; also recorded: significantly ameliorated | recruitment of T cells, B cells, macrophages and dendritic cells into the CNS ([3]; 4 days after T cell transfer, BZ194 5 d, 500 μmol): clearly diminished | infiltration of MBP-specific T cells into the CNS ([3]; spinal cord, three days after T cell transfer, BZ194 500 μmol): reduced; also recorded: seemed to interfere | distribution of TMBP-GFP cells in spleen ([3]; three days after T cell transfer, BZ194 500 μmol): accumulated in the spleen
